Test results reported in ChEMBL document CHEMBL2202954, “The effect of PLC-γ2 inhibitors on the growth of human tumour cells” (2012).

Columns and labels:
Format in all cases: functional
[1] = tested on: MDA-MB-468; experiment: Cytotoxicity against human MDA-MB-468 cells by SRB assay
[2] = tested on: MDA-MB-435; experiment: Cytotoxicity against human MDA-MB-435 cells by SRB assay; conditions: for CC50: read-out: LC50 (the source's name)
[3] = tested on: SF-295; experiment: Cytotoxicity against human SF295 cells by SRB assay
[4] = tested on: NCI-H522; experiment: Cytotoxicity against human NCI-H522 cells by SRB assay
[5] = tested on: SR; experiment: Cytotoxicity against human SR cells by SRB assay
[6] = tested on: RPMI-8226; experiment: Cytotoxicity against human RPMI8226 cells by SRB assay
[7] = tested on: K562; experiment: Cytotoxicity against human K562 cells by SRB assay
[8] = tested on: HL-60(TB); experiment: Cytotoxicity against human HL-60(TB) cells by SRB assay
[9] = tested on: CCRF-CEM; experiment: Cytotoxicity against human CCRF-CEM cells by SRB assay

## Nc1c(C(=O)Nc2ccccc2)sc2nc3c(cc12)C(=O)CCC3
[1]
  GI50: 150 nM
  TGI: 583 nM
[2]
  GI50: 89 nM
  TGI: 297 nM
[3]
  GI50: 372 nM
[4]
  GI50: 150 nM
  LC50: 68000 nM
  TGI: 402 nM
[5]
  GI50: 520 nM
  TGI: > 100000 nM
[6]
  GI50: 520 nM
  TGI: > 100000 nM
[7]
  GI50: 520 nM
  TGI: > 100000 nM
[8]
  GI50: 520 nM
  TGI: > 100000 nM
[9]
  GI50: 520 nM
  TGI: > 100000 nM

## Cc1ccc(Cl)cc1NC(=O)c1sc2nc3c(cc2c1N)C(=O)CCC3
[1]
  GI50: 2740 nM
  TGI: 8760 nM
[2]
  GI50: 1100 nM
  TGI: 5040 nM
[3]
  GI50: 2330 nM
  TGI: 7440 nM
[4]
  GI50: 2170 nM
  TGI: 4950 nM
[5]
  GI50: 3500 nM
  TGI: > 100000 nM
[6]
  GI50: 3500 nM
  TGI: > 100000 nM
[7]
  GI50: 3500 nM
  TGI: > 100000 nM
[8]
  GI50: 3500 nM
  TGI: > 100000 nM
[9]
  GI50: 3500 nM
  TGI: > 100000 nM

## Nc1c(C(=O)Nc2cccc(Cl)c2)sc2nc3c(cc12)C(=O)CCC3
[1]
  GI50: 45 nM
  TGI: 622 nM
[2]
  GI50: 45 nM
  TGI: 270 nM
  CC50: 900 nM
[3]
  GI50: 213 nM
  TGI: 781 nM
[4]
  GI50: 190 nM
  TGI: 788 nM
[5]
  GI50: 200 nM
  TGI: > 100000 nM
[6]
  GI50: 200 nM
  TGI: > 100000 nM
[7]
  GI50: 200 nM
  TGI: > 100000 nM
[8]
  GI50: 200 nM
  TGI: > 100000 nM
[9]
  GI50: 200 nM
  TGI: > 100000 nM

## Cc1cc(C)c(NC(=O)c2sc3nc4c(cc3c2N)C(=O)CCC4)c(C)c1
[1]
  GI50: 596 nM
  TGI: 3650 nM
[2]
  GI50: 267 nM
  TGI: 1160 nM
[3]
  GI50: 399 nM
[4]
  GI50: 360 nM
  TGI: 2010 nM
[5]
  GI50: 3600 nM
  TGI: > 100000 nM
[6]
  GI50: 3600 nM
  TGI: > 100000 nM
[7]
  GI50: 3600 nM
  TGI: > 100000 nM
[8]
  GI50: 3600 nM
  TGI: > 100000 nM
[9]
  GI50: 3600 nM
  TGI: > 100000 nM

## Cc1ccccc1NC(=O)c1sc2nc3c(cc2c1N)C(=O)CCC3
[1]
  GI50: 529 nM
  TGI: 6210 nM
[2]
  GI50: 331 nM
  TGI: 1980 nM
[3]
  GI50: 1330 nM
[4]
  GI50: 895 nM
  TGI: 3500 nM
[5]
  GI50: 4300 nM
  TGI: > 100000 nM
[6]
  GI50: 4300 nM
  TGI: > 100000 nM
[7]
  GI50: 4300 nM
  TGI: > 100000 nM
[8]
  GI50: 4300 nM
  TGI: > 100000 nM
[9]
  GI50: 4300 nM
  TGI: > 100000 nM

## Nc1c(C(=O)Nc2ccccc2F)sc2nc3c(cc12)C(=O)CCC3
[1]
  GI50: 238 nM
  TGI: 952 nM
[2]
  GI50: 196 nM
  TGI: 567 nM
  CC50: 8000 nM
[3]
  GI50: 570 nM
  TGI: 85700 nM
[4]
  GI50: 440 nM
  TGI: 3310 nM
[5]
  GI50: 1800 nM
  TGI: > 100000 nM
[6]
  GI50: 1800 nM
  TGI: > 100000 nM
[7]
  GI50: 1800 nM
  TGI: > 100000 nM
[8]
  GI50: 1800 nM
  TGI: > 100000 nM
[9]
  GI50: 1800 nM
  TGI: > 100000 nM
